# Experimental data as given in ChEMBL document CHEMBL3046274, “Toxicity of imidacloprid to developmental stages of Rhynchophorus ferrugineus (Curculionidae: Coleoptera): Laboratory and field tests” (Crop Prot, 2006).
# Key:
# Assay type in all cases: functional
# [1] = test system: Rhynchophorus ferrugineus; experiment: Pesticidal activity against adult Rhynchophorus ferrugineus (red palm weevil) assessed as mortality at 300 ppm administered topically at 72 hr post-treatment
# [2] = test system: Rhynchophorus ferrugineus; experiment: Pesticidal activity against Rhynchophorus ferrugineus (red palm weevil) larvae assessed as mortality at 1.5 ppm, po at 72 hr post-treatment relative to control
# [3] = test system: Rhynchophorus ferrugineus; experiment: Pesticidal activity against Rhynchophorus ferrugineus (red palm weevil) larvae assessed as mortality at 2 ppm, po at 114 hr post-treatment relative to control
# [4] = test system: Rhynchophorus ferrugineus; experiment: Pesticidal activity against Rhynchophorus ferrugineus (red palm weevil) cocoons assessed as time required for total mortality at 1.5 ml/l administered by dipping for 30 secs
# [5] = test system: Rhynchophorus ferrugineus; experiment: Pesticidal activity against adult Rhynchophorus ferrugineus (red palm weevil) assessed as time required for 100% mortality at 1.5 ml/l administered topically
# [6] = test system: Rhynchophorus ferrugineus; experiment: Pesticidal activity against Rhynchophorus ferrugineus (red palm weevil) larvae assessed as mortality at 300 ppm administered topically at 36 hr post-treatment
# [7] = test system: Rhynchophorus ferrugineus; experiment: Pesticidal activity against Rhynchophorus ferrugineus (red palm weevil) cocoon assessed as mortality at 4 ppm administered by dipping for 3 min measured at 114 hr post-treatment relative to control
# [8] = test system: Rhynchophorus ferrugineus; experiment: Contact toxicity against Rhynchophorus ferrugineus (red palm weevil) adults assessed as time required for 50% mortality at 1.5 ml/l for 2 min
# [9] = test system: Rhynchophorus ferrugineus; experiment: Pesticidal activity against Rhynchophorus ferrugineus (red palm weevil) larvae infested date palm trees assessed as mortality at 2.5 ml/l applied through soil-drench irrigation 1 week after infestation measured on day 20 post-treatment relative to control
# [10] = test system: Rhynchophorus ferrugineus; experiment: Pesticidal activity against Rhynchophorus ferrugineus (red palm weevil) cocoon assessed as mortality at 20 ppm administered by dipping for 3 min measured at 90 hr post-treatment relative to control
# [11] = test system: Rhynchophorus ferrugineus; experiment: Pesticidal activity against adult Rhynchophorus ferrugineus (red palm weevil) assessed as mortality at 2 ppm, po at 48 hr post-treatment relative to control
# [12] = test system: Rhynchophorus ferrugineus; experiment: Pesticidal activity against Rhynchophorus ferrugineus (red palm weevil) cocoon assessed as mortality at 4 ppm administered by dipping for 3 min measured at 48 hr post-treatment relative to control
# [13] = test system: Rhynchophorus ferrugineus; experiment: Pesticidal activity against Rhynchophorus ferrugineus (red palm weevil) cocoon assessed as mortality at 0.5 ppm administered by dipping for 3 min measured at 72 hr post-treatment relative to control
# [14] = test system: Rhynchophorus ferrugineus; experiment: Pesticidal activity against Rhynchophorus ferrugineus (red palm weevil) larvae infested date palm tree assessed as mortality of collected live stage at 20 ml/4l of water applied through soil-drench irrigation measured at 3 weeks post-treatment within 48 hr after emergence relative to control
# [15] = test system: Rhynchophorus ferrugineus; experiment: Pesticidal activity against Rhynchophorus ferrugineus (red palm weevil) larvae assessed as mortality at 100 ppm administered topically at 36 hr post-treatment
# [16] = test system: Rhynchophorus ferrugineus; experiment: Pesticidal activity against Rhynchophorus ferrugineus (red palm weevil) larvae assessed as mortality at 500 ppm administered topically at 36 hr post-treatment
# [17] = test system: Rhynchophorus ferrugineus; experiment: Contact toxicity against Rhynchophorus ferrugineus (red palm weevil) adults assessed as time required for 50% mortality at 1.5 ml/l for 5 min
# [18] = test system: Rhynchophorus ferrugineus; experiment: Contact toxicity against Rhynchophorus ferrugineus (red palm weevil) adults assessed as time required for 100% reversible knockdown at 2.5 ml/l for 2 min
# [19] = test system: Rhynchophorus ferrugineus; experiment: Contact toxicity against Rhynchophorus ferrugineus (red palm weevil) adults assessed as time required for 50% reversible knockdown at 3.5 ml/l for 2 min
# [20] = test system: Rhynchophorus ferrugineus; experiment: Pesticidal activity against Rhynchophorus ferrugineus (red palm weevil) larvae assessed as mortality at 0.5 ppm, po at 48 hr post-treatment relative to control
# [21] = test system: Rhynchophorus ferrugineus; experiment: Pesticidal activity against adult Rhynchophorus ferrugineus (red palm weevil) assessed as mortality at 500 ppm administered topically at 18 hr post-treatment
# [22] = test system: Rhynchophorus ferrugineus; experiment: Contact toxicity against Rhynchophorus ferrugineus (red palm weevil) adults assessed as time required for 100% mortality at 3.5 ml/l for 2 min
# [23] = test system: Rhynchophorus ferrugineus; experiment: Pesticidal activity against adult Rhynchophorus ferrugineus (red palm weevil) assessed as mortality at 300 ppm administered topically at 18 hr post-treatment
# [24] = test system: Rhynchophorus ferrugineus; experiment: Pesticidal activity against Rhynchophorus ferrugineus (red palm weevil) cocoon assessed as mortality at 1.5 ppm administered by dipping for 3 min measured at 24 hr post-treatment relative to control
# [25] = test system: Rhynchophorus ferrugineus; experiment: Contact toxicity against Rhynchophorus ferrugineus (red palm weevil) adults assessed as time required for 50% reversible knockdown at 1.5 ml/l for 2 min
# [26] = test system: Rhynchophorus ferrugineus; experiment: Contact toxicity against Rhynchophorus ferrugineus (red palm weevil) adults assessed as time required for 100% mortality at 2.5 ml/l for 5 min
# [27] = test system: Rhynchophorus ferrugineus; experiment: Pesticidal activity against Rhynchophorus ferrugineus (red palm weevil) larvae assessed as mortality at 1 ppm, po at 90 hr post-treatment relative to control
# [28] = test system: Rhynchophorus ferrugineus; experiment: Pesticidal activity against Rhynchophorus ferrugineus (red palm weevil) larvae assessed as mortality at 500 ppm administered topically at 48 hr post-treatment
# [29] = test system: Rhynchophorus ferrugineus; experiment: Pesticidal activity Rhynchophorus ferrugineus (red palm weevil) larvae assessed as time required after hatching for 100% mortality at 3.5 ml/l administered topically measured up to 14 days relative to control
# [30] = test system: Rhynchophorus ferrugineus; experiment: Pesticidal activity against Rhynchophorus ferrugineus (red palm weevil) larvae assessed as mortality at 0.5 ppm, po at 90 hr post-treatment relative to control
# [31] = test system: Rhynchophorus ferrugineus; experiment: Contact toxicity against Rhynchophorus ferrugineus (red palm weevil) adults assessed as time required for 50% reversible knockdown at 3.5 ml/l for 5 min
# [32] = test system: Rhynchophorus ferrugineus; experiment: Pesticidal activity against Rhynchophorus ferrugineus (red palm weevil) larvae infested date palm trees assessed as mortality at 2.5 ml/l applied through soil-drench irrigation 1 week after infestation measured on day 30 post-treatment relative to control
# [33] = test system: Rhynchophorus ferrugineus; experiment: Pesticidal activity against Rhynchophorus ferrugineus (red palm weevil) larvae assessed as mortality at 300 ppm administered topically at 72 hr post-treatment
# [34] = test system: Rhynchophorus ferrugineus; experiment: Pesticidal activity against adult Rhynchophorus ferrugineus (red palm weevil) assessed as mortality at 500 ppm administered topically at 48 hr post-treatment
# [35] = test system: Rhynchophorus ferrugineus; experiment: Pesticidal activity against adult Rhynchophorus ferrugineus (red palm weevil) assessed as time required for reversible knockdown at 3.5 ml/l administered topically
# [36] = test system: Rhynchophorus ferrugineus; experiment: Pesticidal activity against Rhynchophorus ferrugineus (red palm weevil) larvae assessed as mortality at 2 ppm, po at 18 hr post-treatment relative to control
# [37] = test system: Rhynchophorus ferrugineus; experiment: Pesticidal activity against adult Rhynchophorus ferrugineus (red palm weevil) assessed as mortality at 100 ppm administered topically at 36 hr post-treatment
# [38] = test system: Rhynchophorus ferrugineus; experiment: Pesticidal activity against Rhynchophorus ferrugineus (red palm weevil) larvae assessed as mortality at 4 ppm, po at 48 hr post-treatment relative to control
# [39] = test system: Rhynchophorus ferrugineus; experiment: Contact toxicity against Rhynchophorus ferrugineus (red palm weevil) adults assessed as time required for 100% mortality at 2.5 ml/l for 2 min
# [40] = test system: Rhynchophorus ferrugineus; experiment: Pesticidal activity against Rhynchophorus ferrugineus (red palm weevil) cocoon assessed as mortality at 2 ppm administered by dipping for 3 min measured at 114 hr post-treatment relative to control
# [41] = test system: Rhynchophorus ferrugineus; experiment: Contact toxicity against Rhynchophorus ferrugineus (red palm weevil) adults assessed as time required for 50% mortality at 2.5 ml/l for 2 min
# [42] = test system: Rhynchophorus ferrugineus; experiment: Pesticidal activity against adult Rhynchophorus ferrugineus (red palm weevil) assessed as mortality at 2 ppm, po at 90 hr post-treatment relative to control
smiles,measurement,setting,value
O=[N+]([O-])/N=C1\NCCN1Cc1ccc(Cl)nc1 [IMIDACLOPRID],Activity,[1],100%
same,Activity,[2],100%
same,Activity,[3],100%
same,Time,[4],9.6 days
same,Time,[5],11.5 days
same,Activity,[6],0%
same,Activity,[7],72.2%
same,Time,[8],10.1 days
same,Activity,[9],100%
same,Activity,[10],72.2%
same,Activity,[11],100%
same,Activity,[12],44.4%
same,Activity,[13],0%
same,Activity,[14],100%
same,Activity,[15],0%
same,Activity,[16],38.9%
same,Time,[17],4.3 days
same,Time,[18],7.1 days
same,Time,[19],1.1 days
same,Activity,[20],38.9%
same,Activity,[21],66.7%
same,Time,[22],8.1 days
same,Activity,[23],72.2%
same,Activity,[24],0%
same,Time,[25],3.2 days
same,Time,[26],7.2 days
same,Activity,[27],100%
same,Activity,[28],72.2%
same,Time,[29],4 days
same,Activity,[30],66.7%
same,Time,[31],1.1 days
same,Activity,[32],94.4%
same,Activity,[33],38.9%
same,Activity,[34],72.2%
same,Time,[35],1 days
same,Activity,[36],72.2%
same,Activity,[37],38.9%
same,Activity,[38],100%
same,Time,[39],13.1 days
same,Activity,[40],72.2%
same,Time,[41],10.1 days
same,Activity,[42],100%
